# Assay results published in patent US5069909A, “Transdermal administration of buprenorphine” (Cygnus Therapeutic Systems, priority 1990, dated 1991).
# Counter-ions that a name gives are not always drawn. Like-named read-outs stand apart in the source and are kept apart here.
# Tests used:
# physchem = format: physicochemical; conditions: for solubility thermodynamic: read-out: Cs
# Experimental: Solubility Determination: The solubility of buprenorphine base and HCl salt in various vehicles was obtained by equilibrating a large excess of solute with the vehicle in a water-jacketed glass container. Temperature was maintained at 32° C. by a constant temperature water bath and vigorous mixing with a magnetic stirring bar. Equilibrium time for all the studies was ≥48 hr. An excess of solute was always present in the slurries. Samples were taken, filtered through glass wool-tipped pipets, and an appropriate volume of filtrate was diluted with acetonitrile and assayed by HPLC. The procedure was repeated three times and an average value calculated.
# [1] = format: in vitro ADME, Human; conditions: 32° C.; for Jskin: aqueous (deionized water) saturated solution, side-by-side cells; for increase of skin flux upon stripping (fold): stripped vs heat-separated epidermis
# Experimental: (§1) Stirring was set at 200 rpm throughout the experiment. […] The samples were assayed by HPLC.
# In order to determine the principal diffusional barrier of skin in transporting both base and HCl salt across the membrane, the permeating of drug through heat-separated epidermis was compared with stripped epidermis. Stripping removes most of the stratum corneum. The skin was stripped with Scotch brand cellophane tape to remove stratum corneum twenty times. Permeations of the base and the HCl salt through heat-separated epidermis and stripped epidermis from saturated aqueous solution at 32° C. are shown in Table 7.
# [2] = flow-through cells
# [3] = Octanol-water partition coefficient
# in vitro = in vitro ADME, Human; conditions: for Jskin: n=3; for Papp: human, P = J/Cs, read-out: P (permeability coefficient) (converted)
# Experimental: as §1
# pKa = format: physicochemical
# [4] = cited from earlier work
compound,measurement,setting,value
CO[C@@]12CC[C@@]3(C[C@@H]1[C@](C)(O)C(C)(C)C)[C@H]1Cc4ccc(O)c5c4[C@@]3(CCN1CC1CC1)[C@H]2O5 [Buprenorphine HCl],solubility (in words),physchem,considerably higher than the free base form's
same,Solubility,physchem; deionized water,12000 µg/mL
same,solubility,"physchem; deionized water, water",12000 µg/mL
same,solubility,"physchem; propylene glycol, organic solvent or mixture",22500 µg/mL
same,skin flux of HCl salt vs base (in words),[1]; aqueous saturated solution,higher than that of the base form
same,Jskin,[1]; epidermis,"2.1 (2.4, 1.7) μg/cm^2 /h"
same,Jskin,[1]; stripped epidermis,20.5 ± 4.3 μg/cm^2 /h
same,increase of skin flux upon stripping (fold),[1],10 fold
same,"skin flux from saturated solutions, comparison (in words)",[2],relatively higher penetration than the base form
same,logP,[3],2.63
"CO[C@]12CC[C@@]3(C[C@@H]1[C@](C)(O)C(C)(C)C)[C@H]1Cc4ccc(O)c5c4[C@@]3(CCN1CC1CC1)[C@H]2O5 [Buprenorphine, (5α, 7α (s))-17-(cyclopropylmethyl)-α (1,1-dimethylethyl)-4,5-epoxy18,19-dihydro-3-hydroxy-6-methoxy-α-methyl-6,14-ethenomorphinan-7-methanol]",Solubility,"physchem; Transcutol, 32° C.",88600 µg/mL
same,Solubility,"physchem; Water (deionized), 32° C.",8 µg/mL
same,solubility,"physchem; Water (deionized), 32° C., read-out: Solubility",8 µg/mL
same,solubility thermodynamic,"physchem; equilibrium pH 5.0, 32° C.",692 µg/mL
same,solubility thermodynamic,"physchem; equilibrium pH 6.0, 32° C.",82 µg/mL
same,solubility thermodynamic,"physchem; equilibrium pH 7.0, 32° C.",6 µg/mL
same,solubility thermodynamic,"physchem; equilibrium pH 7.9, 32° C.",0.6 µg/mL
same,solubility thermodynamic,"physchem; equilibrium pH 8.7, 32° C.",0.14 µg/mL
same,solubility,"physchem; organic solvent or mixture, Ethanol (absolute), 32° C., read-out: Solubility",58400 µg/mL
same,solubility,"physchem; organic solvent or mixture, Isopropyl myristate, 32° C., read-out: Solubility",13300 µg/mL
same,solubility,"physchem; organic solvent or mixture, Propylene Glycol, 32° C., read-out: Solubility",5100 µg/mL
same,solubility,"physchem; organic solvent or mixture, Propylene glycol-monolaurate, 32° C., read-out: Solubility",37900 µg/mL
same,solubility,"physchem; organic solvent or mixture, Transcutol, 32° C., read-out: Solubility",88600 µg/mL
same,solubility as a function of pH (in words),physchem; pH 5.0 to 8.7,decreases exponentially as the pH increases
same,Jskin,"in vitro; equilibrium pH 5.0, 32° C.",0.59 ± 0.13 μg/cm^2 /h
same,Jskin,"in vitro; equilibrium pH 6.0, 32° C.",0.48 ± 0.02 μg/cm^2 /h
same,Jskin,"in vitro; equilibrium pH 7.0, 32° C.",0.14 ± 0.01 μg/cm^2 /h
same,Jskin,"in vitro; equilibrium pH 7.9, 32° C.",0.05 ± 0.02 μg/cm^2 /h
same,Jskin,"in vitro; equilibrium pH 8.7, 32° C.",0.03 ± 0.01 μg/cm^2 /h
same,Papp,"in vitro; equilibrium pH 5.0, 32° C.",0.242 ×10⁻⁶ cm/s
same,Papp,"in vitro; equilibrium pH 6.0, 32° C.",1.64 ×10⁻⁶ cm/s
same,Papp,"in vitro; equilibrium pH 7.0, 32° C.",6.39 ×10⁻⁶ cm/s
same,Papp,"in vitro; equilibrium pH 7.9, 32° C.",23.1 ×10⁻⁶ cm/s
same,Papp,"in vitro; equilibrium pH 8.7, 32° C.",58.3 ×10⁻⁶ cm/s
same,skin flux as a function of pH (in words),in vitro; pH 8.7 to 5,increased as the pH was decreased to 5
same,permeability coefficient as a function of pH (in words),in vitro; pH raised to 8.7,increased as the pH was raised to 8.7
same,Jskin,[1]; epidermis,"0.37 (0.35, 0.39) μg/cm^2 /h"
same,Jskin,[1]; stripped epidermis,2.2 ± 0.3 μg/cm^2 /h
same,increase of skin flux upon stripping (fold),[1],6 fold
same,pKa,pKa,8.4
same,"CIT (clearance, ClT)","[4]; Daily dose […] (i.v., tid)",77 ± 5 L/h
same,T1/2 β,"[4]; Daily dose […] (i.v., tid)",3.1 ± 0.6 h
same,Vdss,"[4]; in vivo, iv",188 ± 35 L
same,MEC (analgesics),[4]; in vivo,0.5 to 0.7 ng/mL
same,logP,[3],3.09
